Assays:
dog platelets = test: ex vivo U46619 induced blood platelet aggregation after oral dosing, dogs; type: in vivo; conditions: for inhibition of U46619 induced aggregation: 12 hours after oral administration to dogs at 2.5 mg./kg.
Source text: (§1) (e) For example in the rabbit, arterial blood samples are taken by standard techniques into 3.8% w/v solution of trisodium citrate as anti-coagulant (1 part citrate: 9 parts blood) and then centrifuged first at 150 g, and then at 1000 g, to prepare platelet rich and platelet poor plasma fractions. These fractions are then used to calibrate an instrument for measuring light transmittance and thus the amount of platelet aggregation. The extent of platelet aggregation following addition of the TXA2 mimetic agent U46619 (final concentrations 0.2-2.2 μg./ml.) to the platelet rich plasma fraction is then determined, and the value of maximum aggregation in response to each concentration of U46619 is recorded. The test animals are then dosed orally with the test compound, and arterial blood samples are withdrawn at intervals after dosing. The platelet rich plasma fraction is prepared and U46619 added as above, and the extent of aggregation assessed by measuring the light transmittance of the sample. This value is compared with that obtained from the same animal before dosing, so that a measure of the extent of inhibition of U46619 induced blood platelet aggregation is obtained.
A similar procedure is used in rats and guinea pigs except that blood samples are not taken prior to dosing but a control value is obtained from a group of undosed animals. When the aggregation of dog platelets is being studied, it is necessary to use a predetermined, threshold concentration of the platelet aggregant adenosine diphosphate (about 0.4-1.2×10^-6 M) together with the TXA2 mimetic agent, U46619.

guinea-pig = test: bronchoconstriction test, Konzett-Rossler guinea-pig model, U46619 induced; type: in vivo; conditions: for reduction (inhibition) of bronchoconstriction: 0.5 mg./kg. p.o., 2.5 hours after administration, guinea-pig, U46619 i.v.
Method: (c) a bronchoconstriction test involving measuring the inhibition by a test compound of the bronchoconstriction induced in the Konzett-Rossler guinea-pig model (as modified by Collier and James, Brit. J. Pharmacol., 1967, 30, 283-307) by intravenous administration of the TXA2 mimetic agent, U46619 at 1-1.9 μg/kg.

blood platelets = test: ex vivo U46619 induced blood platelet aggregation after oral dosing, rats; type: in vivo, rat; conditions: 6.5 hours after oral administration to rats at 10 mg./kg.
Source text: as §1
A similar procedure is used in rats and guinea pigs except that blood samples are not taken prior to dosing but a control value is obtained from a group of undosed animals. […]

[1] = system: Male rats (Alderley Park strain); test: U46619 induced hypertensive effect in anaesthetised rats; type: in vivo, rat
Method: (d) Male rats (Alderley Park strain) are anaesthetised with sodium pentobarbital and blood pressure is monitored at the carotid artery. The TXA2 mimetic agent known as U46619 is administered intravenously via the jugular vein and an ED50 (dose necessary to produce 50% of the maximum hypertensive effect) is established (n=3). The ED50 for U46619 is approximately 5 μg/kg. The test compound is then administered either intravenously via the jugular vein or orally via a cannula directly into the stomach and the animal challenged with an ED50 dose of U46619, five minutes after dosing with test compound and then successively every ten minutes until the hypertensive effect of U46619 is no longer blocked.

[2] = system: citrated, platelet rich, human plasma; test: blood platelet aggregation test, U46619 induced aggregation of platelet rich plasma; type: cell-based; conditions: inhibition of aggregation of human platelet rich plasma induced by U46619 (50-250 ng/ml)
Method: (b) a blood platelet aggregation test based on that described by Born (Nature, 1962, 194, 927-929) and involving measuring the inhibition by a test compound of aggregation of citrated, platelet rich, human plasma induced by a sub-maximal concentration (in the range 50-250 ng/ml.) of U46619; and […]

## CC1(C)OC[C@@H](C/C=C\CCCC(=O)O)[C@@H](c2ccccc2O)O1 (relative stereo) [P, 5(Z)-7-(4-o-hydroxyphenyl-2,2-dimethyl-1,3-dioxan-cis-5-yl)heptenoic acid]
Dog platelets
  inhibition of U46619 induced aggregation: 15%
Dog platelets; some 3 hours after an oral dose of 2.5 mg./kg. in dogs
  maximal inhibition of platelet aggregation: 93%
guinea-pig
  reduction (inhibition) of bronchoconstriction: 57%

## O=C(O)CCC/C=C\C[C@@H]1CO[C@H](C(F)(F)F)O[C@@H]1c1ccccc1 (relative stereo) [Q, 5(Z)-7-([2,4,5-cis]-4-phenyl-2-trifluoromethyl-1,3-dioxan-5-yl)heptenoic acid]
Dog platelets; some 4 hours after an oral dose of 75 mg./kg. in dogs
  maximal inhibition of platelet aggregation: 23%
guinea-pig
  reduction (inhibition) of bronchoconstriction: no significant inhibition

## O=C(O)CCC/C=C\C[C@@H]1CO[C@H](C(F)(F)F)O[C@@H]1c1ccccc1O (relative stereo) [formula I, 5(Z)-7-([2,4,5-cis]-4-o-hydroxyphenyl-2-trifluoromethyl-1,3-dioxan-5-yl)heptenoic acid]
Blood platelets
  inhibition of U46619 induced aggregation: 90%
[1]; 3 hours after oral administration at 5 mg./kg., rats
  protection from blood pressure rise induced by U46619: essentially complete protection
Dog platelets
  inhibition of U46619 induced aggregation: 95%
Dog platelets; for up to 12 hours following an oral dose of 2.5 mg./kg. in dogs
  inhibition of U46619 induced platelet aggregation (in words): essentially complete inhibition
[2]
  IC50: 7.78 ± 1.6 ng/mL
guinea-pig; 0.5 mg./kg. oral, 3 hours after dosing (as restated)
  inhibition of bronchoconstriction: ~95%
guinea-pig
  reduction (inhibition) of bronchoconstriction: ~95%

## CCCCC[C@H](O)/C=C/[C@@H]1[C@@H](C/C=C\CCCC(=O)O)[C@H]2CO[C@@H]1C2 [Example U46619]
[1]; Rattus norvegicus, iv, U46619 intravenously via the jugular vein, anaesthetised rats, n=3, read-out: ED50 (dose necessary to produce 50% of the maximum hypertensive effect)
  ED50: ~5 µg/kg

Reference: patent publication US4803220A, “Pharmaceutical agents” (Imperial Chemical Industries PLC, priority 1984, dated 1989)
